Structures can show the parent of a compound that is named as a salt.
Legend:
[1] = biological target: T1, human adenosine A2a receptor (Homo sapiens, UniProt P29274); assay: Adenosine A2a Receptor Functional Assay (A2AGAL2); format: cell-based; details: CHO-K1 cells, cAMP inducible beta-galactosidase reporter, 15 nM NECA agonist challenge
T1 construct: expressed in transfected cells; host or cells: CHO-K1
In short: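 Antagonist mode in CHO-K1 cells expressing human A2a with a cAMP-inducible β-galactosidase reporter (10K cells/well, cultured 2 days). 11-point compound curves preincubated ~15 min at room temperature in Ham's F-12/0.1% BSA, then 15 nM NECA challenge, 5.5–6 h at 37 °C. Colorimetric β-gal read at 405 nm; IC/EC50 fitted.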

[2] = biological target: T2, human A2a adenosine receptor (Homo sapiens, UniProt P29274); assay: Ligand Binding Assay for Adenosine A2a Receptor (A2A-B); details: HEK293 plasma membrane, radioligand [3H]CGS21680
T2 construct: purchased PerkinElmer RB-HA2a; host or cells: HEK293
Experimental: Ligand Binding Assay for Adenosine A2a Receptor
Ligand binding assay of adenosine A2a receptor was performed using plasma membrane of HEK293 cells containing human A2a adenosine receptor (PerkinElmer, RB-HA2a) and radioligand [^3H]CGS21680 (PerkinElmer, NET 1021). Assay was set up in 96-well polypropylene plate in total volume of 200 μL by sequentially adding 20 μL 1:20 diluted membrane, 130 μL assay buffer (50 mM Tris.HCl, pH7.4 10 mM MgCl2, 1 mM EDTA) containing [^3H] CGS21680, 50 μL diluted compound (4×) or vehicle control in assay buffer. Nonspecific binding was determined by […] NECA. Reaction was carried out at room temperature for 2 hours before filtering through 96-well GF/C filter plate pre-soaked in 50 mM Tris.HCl, pH7.4 containing 0.3% polyethylenimine. Plates were then washed 5 times with cold 50 mM Tris.HCl, pH7.4, dried and sealed at the bottom. Microscintillation fluid 30 μL was added to each well and the top sealed. Plates were counted on Packard Topcount for [^3H]. Data was analyzed in Microsoft Excel and GraphPad Prism programs. (Varani, K.; Gessi, S.; Dalpiaz, A.; Borea, P. A. British Journal of Pharmacology, 1996, 117, 1693)

[3] = biological target: T3, human adenosine A1 receptor (Homo sapiens, UniProt P30542); assay: Adenosine A1 Receptor Functional Assay (A1GAL2); format: cell-based; details: CHO-K1 cells, cAMP inducible beta-galactosidase reporter, 4 nM r-PIA/1 uM Forskolin challenge
T3 construct: expressed in transfected cells; host or cells: CHO-K1
T3 sequence (P30542 1-326): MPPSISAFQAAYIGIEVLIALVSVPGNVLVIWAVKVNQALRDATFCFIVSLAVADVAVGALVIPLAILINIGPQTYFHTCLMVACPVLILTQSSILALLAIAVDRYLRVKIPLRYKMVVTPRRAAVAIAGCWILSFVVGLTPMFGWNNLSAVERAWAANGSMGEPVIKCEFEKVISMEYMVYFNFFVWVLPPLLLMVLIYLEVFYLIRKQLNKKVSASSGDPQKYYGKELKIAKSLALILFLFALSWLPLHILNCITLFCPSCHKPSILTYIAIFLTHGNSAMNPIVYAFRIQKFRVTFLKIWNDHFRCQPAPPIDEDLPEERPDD
In short: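 CHO-K1 cells expressing the receptor with a cAMP-inducible β-galactosidase reporter were preincubated with compound (11-point curves) about 15 min at room temperature, then challenged with r-PIA (4 nM)/forskolin (1 µM) for 5.5–6 h at 37 °C. Lysates were read colorimetrically at 405 nm, and IC/EC50 was obtained by curve fitting.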

T2 sequence (P29274 whole entry): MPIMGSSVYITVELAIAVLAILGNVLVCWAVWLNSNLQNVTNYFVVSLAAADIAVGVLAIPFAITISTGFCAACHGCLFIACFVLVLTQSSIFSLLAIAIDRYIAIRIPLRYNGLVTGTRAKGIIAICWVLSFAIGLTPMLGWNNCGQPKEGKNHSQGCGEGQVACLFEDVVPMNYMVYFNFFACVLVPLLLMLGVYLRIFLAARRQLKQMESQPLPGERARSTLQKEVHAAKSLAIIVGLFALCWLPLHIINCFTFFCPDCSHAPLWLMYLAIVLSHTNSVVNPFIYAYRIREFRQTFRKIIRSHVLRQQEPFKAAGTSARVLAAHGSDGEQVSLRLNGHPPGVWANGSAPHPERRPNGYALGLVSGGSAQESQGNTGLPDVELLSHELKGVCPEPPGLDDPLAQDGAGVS
T1 sequence (P29274 whole entry): as above

Row | Ki [1] [nM] | Ki [2] [nM] | Ki [3] [nM] | SMILES
1 | 240 | 393 | 2960 | Nc1nc(-c2cocn2)nc2sc(CN3CC=CCC3)cc12 [Example 70, 6-(3,6-Dihydro-2H-pyridin-1-ylmethyl)-2-oxazol-4-yl-thieno[2,3-d]pyrimidin-4-ylamine]
2 | 36.2 | 93.3 | 1890 | Nc1nc(-c2ccco2)nc2sc(CNC3CC3)cc12 [Example 29, 6-Cyclopropylaminomethyl-2-furan-2-yl-thieno[2,3-d]pyrimidin-4-ylamine]
3 | 115 | 139 | > 10000 | Nc1nc(-c2cccs2)nc2sc(CN3CCCC3)cc12 [Example 30, 6-Pyrrolidin-1-ylmethyl-2-thiophen-2-yl-thieno[2,3-d]pyrimidin-4-ylamine]
4 | 53 | 88.1 | 18200 | Nc1nc(-c2ccco2)nc2sc(CN3CCOCC3)cc12 [Example 42, 2-Furan-2-yl-6-morpholin-4-ylmethyl-thieno[2,3-d]pyrimidin-4-ylamine]
5 | 325 | 1620 | 3020 | Nc1nc(C2CC2)nc2sc(CN3CC=CCC3)cc12 [Example 96, 2-Cyclopropyl-6-(3,6-dihydro-2H-pyridin-1-ylmethyl)-thieno[2,3-d]pyrimidin-4-ylamine]
6 | 202 | 187 | 3320 | Cc1ccc(-c2nc(N)c3cc(CN4CCc5ccccc5C4)sc3n2)o1 [Example 41, 6-(3,4-Dihydro-1H-isoquinolin-2-ylmethyl)-2-(5-methyl-furan-2-yl)-thieno[2,3-d]pyrimidin-4-ylamine]
7 | 48.7 | 21 | 2230 | Nc1nc(-c2ccco2)nc2sc(CN3CCC(F)(F)CC3)cc12 [Example 56, 6-(4,4-Difluoro-piperidin-1-ylmethyl)-2-furan-2-yl-thieno[2,3-d]pyrimidin-4-ylamine]
8 | > 10000 | 41.8 | 129 | N#Cc1cccc(-c2nc(N)c3cc(CN4CCCC4)sc3n2)c1 [Example 65, 3-(4-Amino-6-pyrrolidin-1-ylmethyl-thieno[2,3-d]pyrimidin-2-yl)-benzonitrile]
9 | 28.4 | 18.7 | 606 | Cc1ccc(-c2nc(N)c3cc(CN4CCCCC4)sc3n2)o1 [Example 34, 2-(5-Methyl-furan-2-yl)-6-piperidin-1-ylmethyl-thieno[2,3-d]pyrimidin-4-ylamine]
10 | 18.9 | 12 | 741 | Nc1nc(-c2ccco2)nc2sc(CN3CCC(F)CC3)cc12 [Example 92, 6-(4-Fluoro-piperidin-1-ylmethyl)-2-furan-2-yl-thieno[2,3-d]pyrimidin-4-ylamine Hydrochloride]
11 | 178 | 150 | 1630 | N#Cc1ccc(-c2nc(N)c3cc(CN4CC=CCC4)sc3n2)cc1 [Example 63, 4-[4-Amino-6-(3,6-dihydro-2H-pyridin-1-ylmethyl)-thieno[2,3-d]pyrimidin-2-yl]-benzonitrile]
12 | 169 | 659 | 2960 | COc1cccc(-c2nc(N)c3cc(CN4CCSCC4)sc3n2)c1 [Example 85, 2-(3-Methoxy-phenyl)-6-thiomorpholin-4-ylmethyl-thieno[2,3-d]pyrimidin-4-ylamine]
